# ChEMBL document CHEMBL5550161, “Discovery of novel small molecules targeting the USP21/JAK2/STAT3 axis for the treatment of triple-negative breast cancer” (Eur J Med Chem, 2024)
# The source made the active and inactive calls. No cut-off for these calls is given here.
# Experiments:
# [1] = Toxicity in Balb/c nude mouse assessed as histopathological change in liver at 60 mg/kg, ip bid for 14 days consecutively; type: organism-based; details: in vivo, 336 h, time 14 day
# MDA-MB-231 [2] = assay: Induction of apoptosis in human MDA-MB-231 cells assessed as late apoptotic cells at 0.2 uM incubated for 24 hrs by Annexin V-FITC/PI staining based flow cytometry (reference value: 1.23 %); type: functional
# [3] = Toxicity in Balb/c nude mouse assessed as histopathological change in heart at 60 mg/kg, ip bid for 14 days consecutively; type: organism-based; details: in vivo, 336 h, time 14 day
# HCC1806 [4] = assay: Downregulation of SOCS3 level in human HCC1806 cells at 0.1 to 0.4 uM incubated for 24 hrs by Western blot analysis; type: functional, cell-based; details: dose 0.1-0.4 µM
# HCC1806 [5] = assay: Induction of apoptosis in human HCC1806 cells assessed as necrotic cells at 0.4 uM incubated for 24 hrs by Annexin V-FITC/PI staining based flow cytometry (reference value: 0.15 %); type: functional
# HCC1806 [6] = assay: Induction of apoptosis in human HCC1806 cells assessed as necrotic cells at 0.1 uM incubated for 24 hrs by Annexin V-FITC/PI staining based flow cytometry (reference value: 0.15 %); type: functional
# HCC1806 [7] = assay: Induction of apoptosis in human HCC1806 cells assessed as viable cells at 0.2 uM incubated for 24 hrs by Annexin V-FITC/PI staining based flow cytometry (reference value: 98.95 %); type: functional; details: read-out: Activity
# HCC1806 [8] = assay: Induction of apoptosis in human HCC1806 cells assessed as late apoptotic cells at 0.2 uM incubated for 24 hrs by Annexin V-FITC/PI staining based flow cytometry (reference value: 0.23 %); type: functional
# MDA-MB-231 [9] = assay: Induction of apoptosis in human MDA-MB-231 cells assessed as ROS production rate at 0.2 uM incubated for 24 hrs by DCFH-DA staining based flow cytometry (reference value: 0.28 %); type: functional
# [10] = Toxicity in Balb/c nude mouse assessed as histopathological change in spleen at 60 mg/kg, ip bid for 14 days consecutively; type: organism-based; details: in vivo, 336 h, time 14 day
# MDA-MB-231 [11] = assay: Induction of apoptosis in human MDA-MB-231 cells assessed as decrease in Bcl-2 level by Western blot analysis; type: functional, cell-based; details: dose 0.1-0.4 µM
# MDA-MB-231 [12] = assay: Induction of apoptosis in human MDA-MB-231 cells assessed as late apoptotic cells at 1.6 uM incubated for 24 hrs by Annexin V-FITC/PI staining based flow cytometry (reference value: 1.23 %); type: functional
# HCC1806 [13] = assay: Inhibition of cell invasion in human HCC1806 cells; type: functional, cell-based; details: dose 0.05-2 µM
# HCC1806 [14] = assay: Induction of apoptosis in human HCC1806 cells assessed as viable cells at 0.8 uM incubated for 24 hrs by Annexin V-FITC/PI staining based flow cytometry (reference value: 98.95 %); type: functional; details: read-out: Activity
# HCC1806 [15] = assay: Antitumor activity against human HCC1806 cells xenografted in Balb/c mouse assessed as reduction in tumor weight at 40 to 60 mg/kg, ip bid measured after 14 days; type: functional, organism-based; details: dose 40-60 mg/kg, time 14.0 day
# [16] = Toxicity in Balb/c nude mouse assessed as behavioural changes at 60 mg/kg, ip bid for 14 days consecutively; type: organism-based; details: in vivo, 336 h, time 14 day
# HCC1806 [17] = assay: Antitumor activity against human HCC1806 cells xenografted in Balb/c mouse assessed as decrease in Bcl-2 level at 40 to 60 mg/kg, ip bid measured after 14 days by IHC analysis; type: functional, organism-based; details: dose 40-60 mg/kg, time 14.0 day
# HCC1806 [18] = assay: Induction of apoptosis in human HCC1806 cells assessed as late apoptotic cells at 0.1 uM incubated for 24 hrs by Annexin V-FITC/PI staining based flow cytometry (reference value: 0.23 %); type: functional
# [19] = Tmax in Sprague-Dawley rat at 4 mg/kg, ip; type: ADME, organism-based; details: in vivo
# HCC1806 [20] = assay: Induction of apoptosis in human HCC1806 cells assessed as decrease in JAK2 level by Western blot analysis; type: functional, cell-based; details: dose 0.1-0.4 µM
# HCC1806 [21] = assay: Induction of apoptosis in human HCC1806 cells assessed as early apoptotic cells at 0.8 uM incubated for 24 hrs by Annexin V-FITC/PI staining based flow cytometry (reference value: 0.67 %); type: functional
# HCC1806 [22] = assay: Downregulation of USP21 level in human HCC1806 cells at 0.1 to 0.4 uM incubated for 24 hrs by Western blot analysis; type: functional, cell-based; details: dose 0.1-0.4 µM
# HCC1806 [23] = assay: Effect on UCHL3 level in human HCC1806 cells at 0.1 to 0.4 uM incubated for 24 hrs by Western blot analysis; type: functional, cell-based; details: dose 0.1-0.4 µM
# HCC1806 [24] = assay: Anti-proliferative activity against human HCC1806 cells assessed as cell growth inhibition incubated for 72 hrs by MTT assay; type: functional, cell-based; details: HCC1806, 72 h
# HCC1806 [25] = assay: Induction of apoptosis in human HCC1806 cells assessed as decrease in JAK1 level by Western blot analysis; type: functional, cell-based; details: dose 0.1-0.4 µM
# MDA-MB-231 [26] = assay: Induction of apoptosis in human MDA-MB-231 cells assessed as late apoptotic cells at 0.4 uM incubated for 24 hrs by Annexin V-FITC/PI staining based flow cytometry (reference value: 1.23 %); type: functional
smiles,measurement,setting,value
COc1cc(Nc2cc(F)ccc2C(=O)NCCc2c[nH]c3c(F)ccc(F)c23)cc(OC)c1OC,Activity,[1],Non-Toxic
same,Activity,MDA-MB-231 [2],1.69%
same,Activity,[3],Non-Toxic
same,Activity,HCC1806 [4],Active
same,Activity,HCC1806 [5],0.28%
same,Activity,HCC1806 [6],0.11%
same,viability at 0.2 µM,HCC1806 [7],98.1%
same,Activity,HCC1806 [8],0.45%
same,Activity,MDA-MB-231 [9],1.06%
same,Activity,[10],Non-Toxic
same,Activity,MDA-MB-231 [11],Active
same,Activity,MDA-MB-231 [12],4.95%
same,inhibition,HCC1806 [13],Active
same,viability at 0.8 µM,HCC1806 [14],94%
same,Activity,HCC1806 [15],Active
same,Activity,[16],Non-Toxic
same,Activity,HCC1806 [17],Active
same,Activity,HCC1806 [18],0.29%
same,Tmax,[19],2.67 h
same,Activity,HCC1806 [20],Active
same,Activity,HCC1806 [21],4.23%
same,Activity,HCC1806 [22],Active
same,Activity,HCC1806 [23],inactive
same,IC50,HCC1806 [24],250 nM
same,Activity,HCC1806 [25],Active
same,Activity,MDA-MB-231 [26],1.83%
